Data reported in US8178506B2, “Oligomeric compounds and compositions for use in modulation of small non-coding RNAs” (Regulus Therapeutics Inc., priority 2003, dated 2012).
In the oligonucleotide strings, read from the 5' end, every base follows the letter of its sugar. An asterisk marks phosphorothioate; unmarked linkages are phosphodiester. Other units and linkages are bracketed, terminal groups are in braces. A string of capitals states the bases alone. e = 2'-O-(2-methoxyethyl) (MOE); [5mC] = 5-methylcytosine

How the values were obtained:
Glut4 = Glut4 mRNA expression in adipocytes (real-time PCR); type: cell-based, human; conditions: for Glut4 (mRNA expression): adipocytes, 250 nM oligomeric compound, day nine post-transfection, relative to control (1.0), Table 16
adipocytes = assay: Triglyceride accumulation assay in adipocytes; type: cell-based, human
PPARγ = PPARγ mRNA expression in adipocytes (real-time PCR); type: cell-based, human; conditions: for PPAR gamma (mRNA expression): adipocytes, 250 nM oligomeric compound, day nine post-transfection, relative to control (1.0), Table 16
leptin = assay: Leptin secretion by adipocytes (ELISA); type: cell-based, human; conditions: adipocytes, 250 nM oligomeric compound, day nine post-transfection, relative to control (1.0); Table 16
Method: Leptin secretion into the medium in which adipocytes are cultured is measured by protein ELISA. On day nine post-transfection, 96-well plates are coated with a monoclonal antibody to human leptin (R&D Systems, Minneapolis, Minn.) and left at 4° C. overnight. The plates are blocked with bovine serum albumin (BSA), and a dilution of the treated adipoctye medium is incubated in the plate at room temperature for approximately 2 hours. After washing to remove unbound components, a second monoclonal antibody to human leptin (conjugated with biotin) is added. The plate is then incubated with strepavidin-conjugated horse radish peroxidase (HRP) and enzyme levels are determined by incubation with 3, 3′,5,5′-tetramethlybenzidine, which turns blue when cleaved by HRP. The OD450 is read for each well, where the dye absorbance is proportional to the leptin concentration in the cell lysate.
Leptin is also a marker for differentiated adipocytes. In the adipocyte assay, leptin secretion into the media above the differentiated adipocytes was measured by protein ELISA. Cell growth, transfection and differentiation procedures were carried out as described for the Triglyceride accumulation assay (see below). On day nine post-transfection, 96-well plates were coated with a monoclonal antibody to human leptin (R&D Systems, Minneapolis, Minn.) and left at 4° C. overnight. The plates were blocked with bovine serum albumin (BSA), and a dilution of the media was incubated in the plate at RT for 2 hours. After washing to remove unbound components, a second monoclonal antibody to human leptin (conjugated with biotin) was added. The plate was then incubated with strepavidin-conjugated horseradish peroxidase (HRP) and enzyme levels are determined by incubation with 3, 3′, 5,5′-Tetramethlybenzidine, which turns blue when cleaved by HRP. The OD450 was read for each well, where the dye absorbance is proportional to the leptin concentration in the cell lysate. Results are expressed as a percent±standard deviation relative to transfectant-only controls.

aP2 = aP2 mRNA expression in adipocytes (real-time PCR); type: cell-based, human; conditions: for AP2 (mRNA expression): adipocytes, 250 nM oligomeric compound, day nine post-transfection, relative to control (1.0), Table 16
preadipocytes = assay: Caspase assay in preadipocytes; type: cell-based, human; conditions: untreated control set equal to 1.0
From the text: The effect of oligomeric compounds of the present invention targeting miRNAs was examined in preadipocytes (Zen-Bio, Inc., Research Triangle Park, N.C.) using the fluorometric caspase assay previously described in Example 11.

HuVECs = assay: Endothelial tube formation assay in HuVECs; conditions: 75 nM oligomeric compound
HSL = HSL mRNA expression in adipocytes (real-time PCR); type: cell-based, human; conditions: for HSL (mRNA expression): adipocytes, 250 nM oligomeric compound, day nine post-transfection, relative to control (1.0), Table 16
[1] = system: BJ, B16-F10, T47D, T47Dp53 and HeLa cells; assay: Cell cycle assay (propidium iodide flow cytometry), cell line panel; type: cell-based; conditions: 150 nM oligomeric compound, 4.5 μg/ml LIPOFECTIN, after 72 hours, propidium iodide flow cytometry
T47D cells = assay: Caspase-3 activity assay (apoptosis) in T47D cells; conditions: T47D cells, 48 hours; for Fold Increase over UTC (caspase-3 activity, apoptosis): 200 nM oligomeric compound
[2] = adipocytes, 250 nM oligomeric compound, relative to control (1.0), Table 16
[3] = differentiating adipocytes transfected with oligomeric compound

Substance	Glut4 (mRNA expression) (Glut4)	TG (triglyceride accumulation) (adipocytes; [2])	PPAR gamma (mRNA expression) (PPARγ)	Leptin (secretion) (leptin)	AP2 (mRNA expression) (aP2)	Fold Increase over UTC (caspase activity) (preadipocytes)	% Activity Relative to UTC (tube formation) (HuVECs; Table 58)	HSL (mRNA expression) (HSL)	other results
327930 (antisense eA*e[5mC]*eT*eA*eT*eA*e[5mC]*eA*eA*e[5mC]*e[5mC]*eT*e[5mC]*e[5mC]*eT*eA*e[5mC]*e[5mC]*eT*e[5mC]*eA) [compound 327930]	1.01	0.97	0.98	0.95	0.86	1.4 fold over UTC	88.9%	0.89	–
NNNNNNNNNNNNNNNNNNNN [ISIS 29848, reference compound]	–	–	–	–	–	1.2 fold over UTC	–	–	G1 (percentage of cells in phase of the cell cycle) [1]: 57.8%; G2/M (percentage of cells in phase of the cell cycle) [1]: 15.6%; S (percentage of cells in phase of the cell cycle) [1]: 26.5%; SubG1 (percentage of cells in phase of the cell cycle) [1]: 9.6%; aneuploid (percentage of cells) [1]: 12%; GLUT4 mRNA (Glut4; [3]): 96 percentage of untreated control (UTC); TG (triglyceride accumulation) (adipocytes; [3]): 89 percentage of untreated control (UTC); PPAR gamma mRNA (PPARγ; [3]): 100 percentage of untreated control (UTC); AP2 mRNA (aP2; [3]): 89 percentage of untreated control (UTC); Fold Increase over UTC (caspase-3 activity, apoptosis) (T47D cells; experiment of Table 10): 3.0 fold; Fold Increase over UTC (caspase-3 activity, apoptosis) (T47D cells; experiment of Table 11): 3.2 fold; Fold Increase over UTC (caspase-3 activity, apoptosis) (T47D cells; experiment of Table 12): 3.5 fold; Fold Increase over UTC (caspase activity) (T47D cells; 200 nM, relative to untreated control): 3.5; HSL mRNA (HSL; [3]): 84 percentage of untreated control (UTC)
327926 (antisense eA*e[5mC]*eT*eA*eT*eG*e[5mC]*eA*eA*e[5mC]*e[5mC]*eT*eA*e[5mC]*eT*eA*e[5mC]*e[5mC]*eT*e[5mC]*eT) [compound 327926]	1.10	1.06	0.93	1.47	0.85	1.8 fold over UTC	96.3%	0.82	–
327955 (antisense eG*e[5mC]*e[5mC]*e[5mC]*eT*eT*eT*e[5mC]*eA*eT*e[5mC]*eA*eT*eT*eG*e[5mC]*eA*e[5mC]*eT*eG) [compound 327955]	0.45	0.81	0.92	1.22	0.74	4.3 fold over UTC	–	0.82	% Activity Relative to UTC (tube formation) (HuVECs; Table 59): 46.7%
327942 (antisense e[5mC]*e[5mC]*eA*eT*e[5mC]*eT*eT*eT*eA*e[5mC]*e[5mC]*eA*eG*eA*e[5mC]*eA*eG*eT*eG*eT*eT) [compound 327942]	0.66	0.85	0.87	2.03	0.82	1.0 fold over UTC	74.1%	0.79	–
327938 (antisense eA*eA*e[5mC]*eA*eA*eT*eA*e[5mC]*eA*eA*e[5mC]*eT*eT*eA*e[5mC]*eT*eA*e[5mC]*e[5mC]*eT*e[5mC]*eA) [compound 327938]	0.80	1.05	0.90	1.35	0.86	1.0 fold over UTC	96.3%	0.85	–
